Experimental data: patent publication US7368429B2, “Peptide specificity of anti-myelin basic protein and the administration of myelin basic protein peptides to multiple sclerosis patients” (The Governors of the University of Alberta, priority 1991, dated 2008)
Where no end group is shown, it is not given here.

What was measured:
[1] = tested on: anti-MBP purified from CSF of MS patients; assay: In vitro neutralization of purified anti-MBP (liquid phase assay, then solid phase radioimmunoassay); assay type: binding, human; details: for neutralization of purified anti-MBP: pooled anti-MBP from 10 MS patients, FIG. 2; for REACTIVITY WITH ANTI-MBP: purified anti-MBP, h-MBP 0-1000 ng, peptides 0-10,000 ng, 1.5 hours incubation
From the text: Purified MBP was coupled to CNBr-activated Sepharose 4B (Pharmacia™) according to the manufacturer's instructions. Purified CSF IgG containing increased anti-MBP levels from 35 patients with acute MS relapses was used to isolate anti-MBP by MBP-Sepharose affinity chromatography (Warren, K. G. and Catz, I., J Neurol Sci 103:90-96, 1991). Purified anti-MBP samples were compared with the initial IgG source by poly-acrylamide gel electrophoresis. When purified anti-MBP samples were absorbed to zero with MBP, the post-absorption supernatants contained no residual IgG indicating the purity of anti-MBP.
Constant amounts of anti-MBP (15 radioactivity binding units corresponding to 100 for scale expansion purposes=% 0) were incubated with increasing amounts of h-MBP (0-1000 ng) or individual peptides of MBP (0-10,000 ng) in a liquid phase assay and after 1.5 hours incubation, free anti-MBP levels were determined in all mixtures. Anti-MBP isolated from 7 individual MS patients or pooled anti-MBP from 10 different MS patients were used in neutralization experiments. […] Another mouse monoclonal antibody to epitope 45-50 was used as negative antibody control.
(§1) Anti-MBP levels were determined by a solid phase radioimmunoassay with human MBP (Warren, K. G. and Catz, I., Ann Neurol 209:20-25, 1986; Warren, K. G. and Catz, I., Ann Neurol 21:183-187, 1987; and Warren, K. G. and Catz, I., J Neurol Sci 91:143-151, 1989). Free anti-MBP levels were measured in all fractions from affinity chromatography and in all neutralization mixtures. All individual samples were run in quadruplicate using the same iodinated material in order to minimize between-assay variability.

MAb to peptide MBP64-78 = assay: Positive antibody control of neutralization assay; assay type: binding
Protocol: (§2) Constant amounts of anti-MBP (15 radioactivity binding units corresponding to 100 for scale expansion purposes=% 0) were incubated with increasing amounts of h-MBP (0-1000 ng) or individual peptides of MBP (0-10,000 ng) in a liquid phase assay and after 1.5 hours incubation, free anti-MBP levels were determined in all mixtures. Anti-MBP isolated from 7 individual MS patients or pooled anti-MBP from 10 different MS patients were used in neutralization experiments. […] One monoclonal antibody (MAb) to peptide MBP64-78 and a polyclonal rabbit antiserum to peptide MBP1-8 were used as positive antibody controls (Groome, N., Harland, J., and Dawkes, A., Neurochem Int 7:309-317, 1985; Barry, R., Payton, M., and Groome, N., Neurochem Int 2:291-300, 1991). Another mouse monoclonal antibody to epitope 45-50 was used as negative antibody control.
as §1

[2] = tested on: polyclonal rabbit antiserum to peptide MBP1-8; assay: Positive antibody control of neutralization assay; assay type: binding
Protocol: as §2, §1

[3] = tested on: F and B anti-MBP purified from MS brain tissue; assay: Competitive inhibition assay with MBP decapeptides (epitope localization); assay type: binding, human; details: percent inhibition = 100 - radioactivity units, FIG. 10
Protocol: Prior to being assayed all CSF and/or tissue samples were diluted to a final IgG concentration of 0.010 g/l. F anti-MBP was detected directly in CSF or tissue extract while B levels of antibody were determined following acid hydrolysis of immune complexes with glycine HCl buffer pH 2.2. Non-specific binding was performed for each sample in uncoated wells. For epitope localization, synthetic peptides were firstly reacted with purified antibody in a liquid phase competitive assay and then anti-MBP was determined by radioimmunoassay in all resulting supernatants. Results of the combined competitive binding assay and radioimmunoassay were expressed as percent inhibition of synthetic peptide defined as 100—radioactivity units. Samples were done in 10 replicates and counted for 10 minutes each in a LKB1275 Minigamma counter. A pool of tissue-purified anti-MBP was used at 5 pre-established dilutions as positive controls. Pooled CSF from patients with non-neurological diseases was used as negative controls. Within assay reproducibility was between 3 and 5% and between assay variation was less than 7%.
The peptide(s) producing maximum inhibition were considered to be most highly associated with the antibody binding site.

[4] = tested on: mouse monoclonal antibody to epitope 45-50; assay: Negative antibody control of neutralization assay; assay type: binding
Protocol: as §2, §1

Substance | neutralization of purified anti-MBP [1] | REACTIVITY WITH ANTI-MBP [1] | inhibition of MAb to peptide MBP64-78 (MAb to peptide MBP64-78) | inhibition of antibody to peptide MBP1-8 [2] | percent inhibition of F and B anti-MBP [3] | reaction with MAb to MBP 45-50 [4] | neutralization of anti-MBP purified from individual patients ([1]; anti-MBP from 7 individual MS patients, FIG. 3)
ARTAHYGSLPQKSHG [MBP64-78] | partially neutralized | + | inhibited |  |  |  | 
MBP1-8: synthetic peptide of human MBP sequence 1-8 with unnatural cysteine residue (ASQKRPSQC) |  | − |  | inhibited |  |  | 
MBP: Native human myelin basic protein isolated from non-MS brain tissue, 18.5 KD (ASQKRPSQRHGSKYLATASTMDHARHGFLPRHRDTG) | completely neutralized | ++ |  |  | 100% | did not react | completely neutralized
